Experiments:
Assay in all cases: KinomeScan profiling
Assay type in all cases: binding
[1] = molecular target: T1, PIK3CA(C420R) (Homo sapiens, UniProt P42336, C420R); conditions: read-out: % control
T1 construct: purchased KinomeScan® (panel service)
Outline: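 The panel spans 468 kinases, and each inventive compound was applied at 1 μM from DMSO. Lower % control means stronger binding; the activity cut-off is set at less than 35%.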

[2] = molecular target: T2, AXL (Homo sapiens, UniProt P30530); conditions: read-out: % control
T2 construct: purchased KinomeScan®
T2 sequence (P30530 26-894): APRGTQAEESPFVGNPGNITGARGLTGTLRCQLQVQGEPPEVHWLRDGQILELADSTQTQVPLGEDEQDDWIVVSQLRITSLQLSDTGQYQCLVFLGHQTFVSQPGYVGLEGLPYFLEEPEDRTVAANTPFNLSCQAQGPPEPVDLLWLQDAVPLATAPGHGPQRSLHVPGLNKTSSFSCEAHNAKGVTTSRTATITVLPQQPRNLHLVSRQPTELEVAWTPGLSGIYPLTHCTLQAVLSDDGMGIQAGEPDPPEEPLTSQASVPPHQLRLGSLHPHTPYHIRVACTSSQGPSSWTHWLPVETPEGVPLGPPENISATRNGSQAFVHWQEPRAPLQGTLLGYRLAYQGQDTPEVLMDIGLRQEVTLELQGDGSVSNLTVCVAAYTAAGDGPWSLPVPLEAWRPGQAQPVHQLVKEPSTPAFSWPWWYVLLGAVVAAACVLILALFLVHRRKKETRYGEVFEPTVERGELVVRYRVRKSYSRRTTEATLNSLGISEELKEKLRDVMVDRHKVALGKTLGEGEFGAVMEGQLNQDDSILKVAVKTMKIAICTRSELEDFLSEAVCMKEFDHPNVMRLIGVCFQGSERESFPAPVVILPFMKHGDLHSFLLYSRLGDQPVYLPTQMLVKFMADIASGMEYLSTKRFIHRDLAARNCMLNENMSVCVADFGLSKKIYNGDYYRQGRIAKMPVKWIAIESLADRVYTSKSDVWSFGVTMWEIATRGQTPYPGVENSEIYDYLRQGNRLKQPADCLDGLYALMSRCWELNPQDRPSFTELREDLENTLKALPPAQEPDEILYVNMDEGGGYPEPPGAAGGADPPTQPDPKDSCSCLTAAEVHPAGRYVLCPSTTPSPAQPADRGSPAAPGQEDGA
Outline: (§1)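 First, compounds in DMSO are added at 1 μM to each of 468 kinase assays. Next, RLU signals are normalised between positive control (0%) and DMSO (100%). Finally, kinases under 35% are flagged active.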

[3] = molecular target: RAF1 (Homo sapiens, UniProt P04049); conditions: RAF1, 1 μM; read-out: % control
Outline: as §1

[4] = molecular target: T3, SNARK (Homo sapiens, UniProt Q9H093); conditions: read-out: % control
T3 construct: purchased KinomeScan® (panel service)
T3 sequence (Q9H093 1-628): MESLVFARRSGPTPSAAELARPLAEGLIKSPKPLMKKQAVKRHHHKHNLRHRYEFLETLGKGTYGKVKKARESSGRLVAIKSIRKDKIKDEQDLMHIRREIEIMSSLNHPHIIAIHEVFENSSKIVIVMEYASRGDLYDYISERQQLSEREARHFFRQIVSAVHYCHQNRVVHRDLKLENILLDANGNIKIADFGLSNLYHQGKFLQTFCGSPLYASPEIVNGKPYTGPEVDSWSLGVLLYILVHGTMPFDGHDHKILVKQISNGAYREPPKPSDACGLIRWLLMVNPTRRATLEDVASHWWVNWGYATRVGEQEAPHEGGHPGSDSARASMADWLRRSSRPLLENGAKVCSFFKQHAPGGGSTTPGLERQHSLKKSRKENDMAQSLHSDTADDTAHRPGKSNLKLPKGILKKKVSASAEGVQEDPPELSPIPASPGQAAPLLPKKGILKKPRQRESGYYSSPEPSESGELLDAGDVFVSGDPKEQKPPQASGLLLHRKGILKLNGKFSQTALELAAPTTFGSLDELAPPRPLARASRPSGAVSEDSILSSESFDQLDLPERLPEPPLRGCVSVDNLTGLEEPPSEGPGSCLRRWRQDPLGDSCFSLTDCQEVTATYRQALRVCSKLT
Outline: as §1

[5] = molecular target: T4, FLT3-autoinhibited (Homo sapiens, UniProt P36888); conditions: read-out: % control
T4 sequence (P36888 564-993 limits assumed): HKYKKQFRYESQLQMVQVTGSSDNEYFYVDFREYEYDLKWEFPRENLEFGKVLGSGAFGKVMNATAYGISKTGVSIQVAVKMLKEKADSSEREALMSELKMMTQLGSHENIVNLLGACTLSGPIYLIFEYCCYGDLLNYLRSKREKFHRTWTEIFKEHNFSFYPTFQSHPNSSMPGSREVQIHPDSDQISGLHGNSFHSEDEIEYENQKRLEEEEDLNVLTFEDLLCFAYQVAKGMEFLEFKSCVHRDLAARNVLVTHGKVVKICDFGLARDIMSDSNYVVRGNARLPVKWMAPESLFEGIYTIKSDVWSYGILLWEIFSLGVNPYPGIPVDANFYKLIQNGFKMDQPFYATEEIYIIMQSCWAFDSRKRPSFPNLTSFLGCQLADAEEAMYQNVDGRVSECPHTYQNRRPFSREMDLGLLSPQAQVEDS
Outline: as §1

[6] = molecular target: FAK (Homo sapiens, UniProt Q05397); conditions: read-out: % control
Outline: as §1

T1 sequence (P42336 whole entry C420R): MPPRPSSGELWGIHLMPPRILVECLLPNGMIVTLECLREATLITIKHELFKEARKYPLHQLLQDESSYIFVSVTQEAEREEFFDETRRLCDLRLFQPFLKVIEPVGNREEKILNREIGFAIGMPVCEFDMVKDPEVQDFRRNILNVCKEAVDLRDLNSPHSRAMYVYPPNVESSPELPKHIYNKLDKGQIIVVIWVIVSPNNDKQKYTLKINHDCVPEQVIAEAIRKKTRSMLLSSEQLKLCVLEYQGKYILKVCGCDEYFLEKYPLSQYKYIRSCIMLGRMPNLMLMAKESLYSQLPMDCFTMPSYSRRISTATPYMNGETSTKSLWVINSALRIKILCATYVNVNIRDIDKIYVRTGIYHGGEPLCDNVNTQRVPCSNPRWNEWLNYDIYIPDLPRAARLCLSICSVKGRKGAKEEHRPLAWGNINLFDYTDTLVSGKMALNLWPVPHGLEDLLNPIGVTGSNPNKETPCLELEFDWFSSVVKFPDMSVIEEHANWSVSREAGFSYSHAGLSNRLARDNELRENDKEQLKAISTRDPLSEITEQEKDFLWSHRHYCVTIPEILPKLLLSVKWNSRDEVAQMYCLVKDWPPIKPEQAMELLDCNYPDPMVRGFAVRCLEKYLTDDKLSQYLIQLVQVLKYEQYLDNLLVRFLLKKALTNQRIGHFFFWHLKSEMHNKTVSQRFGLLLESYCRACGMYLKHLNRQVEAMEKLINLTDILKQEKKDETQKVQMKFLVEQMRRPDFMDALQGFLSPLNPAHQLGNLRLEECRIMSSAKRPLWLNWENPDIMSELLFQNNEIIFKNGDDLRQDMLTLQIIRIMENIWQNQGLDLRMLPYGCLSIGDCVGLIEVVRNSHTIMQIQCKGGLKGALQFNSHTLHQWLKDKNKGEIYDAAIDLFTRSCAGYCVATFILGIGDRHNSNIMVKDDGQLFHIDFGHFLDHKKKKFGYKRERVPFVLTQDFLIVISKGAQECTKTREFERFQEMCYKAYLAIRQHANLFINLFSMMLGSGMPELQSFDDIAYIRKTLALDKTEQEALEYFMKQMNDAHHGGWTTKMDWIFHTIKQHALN
FAK, sequence (Q05397 whole entry): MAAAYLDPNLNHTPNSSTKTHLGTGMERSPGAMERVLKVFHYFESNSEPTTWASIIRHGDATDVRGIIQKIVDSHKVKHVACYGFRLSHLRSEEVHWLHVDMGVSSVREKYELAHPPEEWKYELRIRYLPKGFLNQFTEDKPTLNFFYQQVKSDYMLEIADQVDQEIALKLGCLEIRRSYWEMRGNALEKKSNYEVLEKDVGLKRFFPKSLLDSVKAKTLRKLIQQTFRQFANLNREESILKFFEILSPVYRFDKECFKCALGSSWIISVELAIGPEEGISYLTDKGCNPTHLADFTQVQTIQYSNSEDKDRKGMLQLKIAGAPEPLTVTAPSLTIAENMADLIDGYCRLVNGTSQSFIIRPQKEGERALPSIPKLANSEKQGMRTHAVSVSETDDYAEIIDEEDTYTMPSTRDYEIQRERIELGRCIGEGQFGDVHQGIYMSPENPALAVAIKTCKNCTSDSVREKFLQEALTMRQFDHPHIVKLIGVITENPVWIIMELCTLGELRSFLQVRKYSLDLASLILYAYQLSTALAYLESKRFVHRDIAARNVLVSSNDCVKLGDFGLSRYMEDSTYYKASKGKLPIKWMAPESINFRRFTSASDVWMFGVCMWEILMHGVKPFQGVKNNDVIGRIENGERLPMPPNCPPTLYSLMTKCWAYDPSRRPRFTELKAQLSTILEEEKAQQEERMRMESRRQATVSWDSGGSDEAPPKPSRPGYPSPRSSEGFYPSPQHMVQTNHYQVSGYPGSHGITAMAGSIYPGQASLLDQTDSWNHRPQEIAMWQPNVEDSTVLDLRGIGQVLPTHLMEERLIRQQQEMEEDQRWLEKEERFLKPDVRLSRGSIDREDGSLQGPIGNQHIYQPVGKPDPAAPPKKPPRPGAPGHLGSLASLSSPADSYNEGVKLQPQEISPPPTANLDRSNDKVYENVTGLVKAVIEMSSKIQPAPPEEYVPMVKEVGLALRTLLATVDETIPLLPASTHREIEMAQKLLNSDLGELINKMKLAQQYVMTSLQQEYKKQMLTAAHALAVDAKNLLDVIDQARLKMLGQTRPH
RAF1, sequence (P04049 whole entry): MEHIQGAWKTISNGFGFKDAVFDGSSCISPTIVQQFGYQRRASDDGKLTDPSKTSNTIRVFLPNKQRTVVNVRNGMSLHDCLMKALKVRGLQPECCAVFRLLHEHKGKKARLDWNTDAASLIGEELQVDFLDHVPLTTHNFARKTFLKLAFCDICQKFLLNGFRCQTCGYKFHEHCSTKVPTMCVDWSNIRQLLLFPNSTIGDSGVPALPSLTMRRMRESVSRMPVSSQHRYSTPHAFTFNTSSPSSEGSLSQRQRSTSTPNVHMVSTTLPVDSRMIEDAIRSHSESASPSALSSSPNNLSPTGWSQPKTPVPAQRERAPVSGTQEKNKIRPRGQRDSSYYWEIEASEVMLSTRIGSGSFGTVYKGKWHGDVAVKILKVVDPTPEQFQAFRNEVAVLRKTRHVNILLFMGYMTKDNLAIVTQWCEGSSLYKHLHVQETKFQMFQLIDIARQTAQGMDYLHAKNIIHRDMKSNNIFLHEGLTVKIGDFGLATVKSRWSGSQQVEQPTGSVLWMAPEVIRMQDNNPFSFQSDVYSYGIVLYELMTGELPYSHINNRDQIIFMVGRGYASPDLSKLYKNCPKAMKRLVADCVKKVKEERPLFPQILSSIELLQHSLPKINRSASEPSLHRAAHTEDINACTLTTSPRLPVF

SMILES	remaining binding at 1 µM [1]	remaining binding at 1 µM [2]	remaining binding at 1 µM [3]	remaining binding at 1 µM [4]	remaining binding at 1 µM [5]	remaining binding at 1 µM [6]
CNc1c(-c2cnn([C@H]3CCN(C(C)=O)C[C@@H]3F)c2)cnc2[nH]cc(Cl)c12 [Compound 77, 1-((3S,4S)-4-(4-(3-chloro-4-(methylamino)-1H-pyrrolo[2,3-b]pyridin-5-yl)-1H-pyrazol-1-yl)-3-fluoropiperidin-1-yl)ethan-1-one]	75%	8.5%	91%	96%	53%	90%
O=C(c1ccc(-c2cnc3[nH]cc(Cl)c3c2NC2CCCC2)cc1)N1CCC(N2CCOCC2)CC1 [Compound 101, (4-(3-chloro-4-(cyclopentylamino)-1H-pyrrolo[2,3-b]pyridin-5-yl)phenyl)(4-morpholinopiperidin-1-yl)methanone]	100%	40%	91%	33%	62%	71%
CNc1c(-c2ccc(C(=O)N3CCC(N4CCOCC4)CC3)cc2)cnc2[nH]cc(Cl)c12 [Compound 96, (4-(3-chloro-4-(methylamino)-1H-pyrrolo[2,3-b]pyridin-5-yl)phenyl)(4-morpholinopiperidin-1-yl)methanone]	75%	33%	100%	64%	93%	65%
